Reference: patent US9469650B2, “Melampomagnolide B derivatives” (BOARD OF TRUSTEES OF THE UNIVERSITY OF ARKANSAS, priority 2013, dated 2016)

Key:
MALME-3M [1] = system: MALME-3M
MALME-3M [2] = assay: panel of 60 human tumor cell lines, growth inhibition (Melanoma); conditions: MALME-3M

C=C1C(=O)O[C@H]2[C@H]1CC/C(COC(=O)NCCN1CCCCC1)=C\CC[C@@]1(C)O[C@@H]21 [JVM 2-13]
CC50 (CCRF-CEM): > 100 µM
CC50 (K-562): > 100 µM
CC50 (MOLT-4): > 100 µM
CC50 (SR): > 100 µM
CC50 (HOP-62): 68.5 µM
CC50 (HOP-92): 42.1 µM
CC50 (NCI-H322M): 61.1 µM
CC50 (NCI-H460): 78.1 µM
CC50 (NCI-H522): 7.25 µM
CC50 (HCC-2998): 70.1 µM
CC50 (HCT-15): 50.7 µM
CC50 (HT29): 50.4 µM
CC50 (SW-620): 50.3 µM
CC50 (SF-268): 60.2 µM
CC50 (SF-295): > 100 µM
CC50 (SNB-19): 73.1 µM
CC50 (SNB-75): 48.8 µM
CC50 (U251): 64.1 µM
CC50 (LOX IMVI): 56.2 µM
CC50 (MALME-3M [1]): 50.6 µM
CC50 (M14): 55.1 µM
CC50 (MDA-MB-435): 43.8 µM
CC50 (SK-MEL-2): 69.7 µM
CC50 (SK-MEL-28): 47.2 µM
CC50 (SK-MEL-5): 58.3 µM
CC50 (UACC-62): 50.1 µM
CC50 (IGROV1): 81.2 µM
CC50 (OVCAR-5): 55.2 µM
CC50 (OVCAR-8): 58.4 µM
CC50 (NCI/ADR-RES): > 100 µM
CC50 (SK-OV-3): > 100 µM
CC50 (786-0): 56.2 µM
CC50 (A498): 53.1 µM
CC50 (CAKI-1): 40.4 µM
CC50 (RXF 393): 37.3 µM
CC50 (SN12C): 58.5 µM
CC50 (TK-10): 35.8 µM
CC50 (UO-31): 49.5 µM
CC50 (PC-3): 70.9 µM
CC50 (DU-145): 42 µM
CC50 (MDA-MB-231/ATCC): 56.5 µM
CC50 (HS 578T): > 100 µM
CC50 (BT-549): 44.3 µM
CC50 (T-47D): 62.4 µM
GI50 (MALME-3M [2]): 1.47 µM
TGI (MALME-3M [2]): 4.6 µM
Percent Growth (MALME-3M [2]; Log10 Concentration −4.0): −57%
Percent Growth (MALME-3M [2]; Log10 Concentration −5.0): −34%
Percent Growth (MALME-3M [2]; Log10 Concentration −6.0): 67%
Percent Growth (MALME-3M [2]; Log10 Concentration −7.0): 99%
Percent Growth (MALME-3M [2]; Log10 Concentration −8.0): 103%
